In patent publication US8461328B2, “Tricyclic heterocyclic compounds, compositions and methods of use thereof” (Genentech, Inc., priority 2010, dated 2013) one finds Ki data, which are given here for 25 compounds.

Format in all cases: biochemical
One experiment deals with T1, JAK1 (Homo sapiens, UniProt P23458).
T1 construct: made in house; host or cells: SF9 insect cells (baculovirus)
The experiment in a line: JAK1 inhibition (Table 4). The following applies: read-out: JAK1 Ki.

A further experiment has as its target T2, JAK2 (Homo sapiens, UniProt O60674).
T2 construct: made in house; host or cells: SF9 insect cells (baculovirus)
Description: JAK2 inhibition (Table 4). The following applies: read-out: JAK2 Ki.

A further experiment has as its target T3, JAK3 (Homo sapiens, UniProt P52333).
T3 construct: made in house; host or cells: SF9 insect cells (baculovirus)
The experiment in a line: JAK3 inhibition (Table 4). As to conditions: read-out: JAK3 Ki.

The target in a further experiment is T4, TYK2 (Homo sapiens, UniProt P29597).
T4 construct: made in house; host or cells: SF9 insect cells (baculovirus)
T4 sequence (P29597 873-1187): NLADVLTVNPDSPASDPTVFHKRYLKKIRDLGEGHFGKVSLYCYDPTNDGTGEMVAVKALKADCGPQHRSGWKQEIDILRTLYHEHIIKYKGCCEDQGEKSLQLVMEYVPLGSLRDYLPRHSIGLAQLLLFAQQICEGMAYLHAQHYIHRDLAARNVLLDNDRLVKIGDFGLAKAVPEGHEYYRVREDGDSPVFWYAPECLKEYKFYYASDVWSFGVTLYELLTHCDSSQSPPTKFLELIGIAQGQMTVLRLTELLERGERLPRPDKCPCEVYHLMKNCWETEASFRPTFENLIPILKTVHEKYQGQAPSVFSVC
Description: TYK2 inhibition (Table 4).

T1 sequence (P23458 852-1154): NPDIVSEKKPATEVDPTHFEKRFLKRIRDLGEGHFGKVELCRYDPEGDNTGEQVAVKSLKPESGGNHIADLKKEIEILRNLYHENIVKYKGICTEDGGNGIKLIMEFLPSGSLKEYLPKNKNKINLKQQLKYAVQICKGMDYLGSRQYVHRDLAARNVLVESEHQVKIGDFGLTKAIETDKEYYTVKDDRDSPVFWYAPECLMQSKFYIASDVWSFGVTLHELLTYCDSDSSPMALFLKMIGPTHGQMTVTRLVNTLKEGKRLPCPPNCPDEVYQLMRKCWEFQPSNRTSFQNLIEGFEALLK
T3 sequence (P52333 783-1124): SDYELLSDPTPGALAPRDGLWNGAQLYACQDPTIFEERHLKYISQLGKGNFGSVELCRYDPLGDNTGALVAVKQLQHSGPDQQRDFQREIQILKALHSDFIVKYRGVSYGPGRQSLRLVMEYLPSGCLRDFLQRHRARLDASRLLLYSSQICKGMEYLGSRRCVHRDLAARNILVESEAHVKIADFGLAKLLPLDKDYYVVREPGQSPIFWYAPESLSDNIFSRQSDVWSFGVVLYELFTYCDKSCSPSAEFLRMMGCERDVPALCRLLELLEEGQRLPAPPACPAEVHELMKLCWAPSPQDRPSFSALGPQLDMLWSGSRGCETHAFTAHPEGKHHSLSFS
T2 sequence (O60674 812-1132): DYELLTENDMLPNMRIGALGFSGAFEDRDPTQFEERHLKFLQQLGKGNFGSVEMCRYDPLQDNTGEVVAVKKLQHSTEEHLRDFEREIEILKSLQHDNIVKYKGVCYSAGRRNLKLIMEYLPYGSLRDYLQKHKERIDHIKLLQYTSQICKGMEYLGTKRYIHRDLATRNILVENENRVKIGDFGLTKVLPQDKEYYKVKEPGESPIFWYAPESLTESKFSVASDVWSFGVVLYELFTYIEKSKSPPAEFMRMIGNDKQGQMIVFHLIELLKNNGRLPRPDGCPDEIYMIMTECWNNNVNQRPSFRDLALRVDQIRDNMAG

As a reminder, the Ki is the dissociation constant of the complex between target and ligand, obtained from inhibition or displacement. As for `O=C(Cc1nc2cnc3[nH]ccc3c2n1C1CCN(Cc2ccccc2)CC1)N1CCC(F)(F)CC1` [Example 217, 2-[1-(1-Benzyl-piperidin-4-yl)-1,6-dihydro-1,3,5,6-tetraaza-as-indacen-2-yl)-1-(4,4-difluoro-piperidin-1-yl)-ethanone], the Ki on JAK1 was 3.6 nM; on JAK2 it was 48.7 nM; at JAK3, 6.79 nM; at TYK2, 608 nM.
For the compound `O=C(N[C@H]1CC[C@H](n2cnc3cnc4[nH]ccc4c32)CC1)c1ccccc1` [Example 218, N-[4-(6H-1,3,5,6-Tetraaza-as-indacen-1-yl)-cyclohexyl]-benzamide], the Ki on JAK1 was 6.79 nM; on JAK2, 6.07 nM; on JAK3 it was 76.4 nM; on TYK2, 33.9 nM.
The corresponding values for `O=C(CC1CC1)N1CCC[C@@H](n2cnc3cnc4[nH]ccc4c32)C1` [Example 220, 2-Cyclopropyl-1-[(R)-3-(6H-1,3,5,6-tetraaza-as-indacen-1-yl)-piperidin-1-yl]-ethanone] are 3.31 nM, 7.43 nM, 28.3 nM and 29.3 nM.
`N#CC1(C(=O)N2CCC[C@@H](n3cnc4cnc5[nH]ccc5c43)C2)CC1` [Example 221, 1-[(R)-3-(6H-1,3,5,6-Tetraaza-as-indacen-1-yl)-piperidine-1-carbonyl]-cyclopropanecarbonitrile]: the Ki at JAK1 stood at 2.52 nM; on JAK2, 3.92 nM; on JAK3, 8.12 nM; at TYK2, 9.37 nM.
Taken in the same sequence, the figures for `O=C(Cc1ccccc1)N1CCC[C@@H](n2cnc3cnc4[nH]ccc4c32)C1` [Example 222, 2-Phenyl-1-[(R)-3-(6H-1,3,5,6-tetraaza-as-indacen-1-yl)-piperidin-1-yl]-ethanone] were 13.8 nM, 29.1 nM, 48.1 nM and 555 nM.
The corresponding values for `CC(C)c1nc2cnc3[nH]ccc3c2n1C1CCN(Cc2ccccc2)CC1` [Example 223, 1-(1-Benzyl-piperidin-4-yl)-2-isopropyl-1,6-dihydro-1,3,5,6-tetraaza-as-indacene] are 3.74 nM, 24.4 nM, 8.11 nM and 1470 nM.
Taken in the same sequence, the figures for `CC(C)Cc1nc2cnc3[nH]ccc3c2n1C1CCN(Cc2ccccc2)CC1` [Example 224, 1-(1-Benzyl-piperidin-4-yl)-2-isobutyl-1,6-dihydro-1,3,5,6-tetraaza-as-indacene] were 14.2 nM, 59.2 nM, 20.6 nM and 1980 nM.
On to `O=C(CN1CCC[C@@H](n2cnc3cnc4[nH]ccc4c32)C1)c1ccccc1` [Example 225, 1-Phenyl-2-[(R)-3-(6H-1,3,5,6-tetraaza-as-indacen-1-yl)-piperidin-1-yl]-ethanone], for which the inhibition constant Ki at JAK1 amounted to 59.6 nM; on JAK2, 127 nM; on JAK3, 118 nM; at TYK2 it was 817 nM.
As for `CC1(C)CC1C(=O)N1CCC[C@@H](n2cnc3cnc4[nH]ccc4c32)C1` (stereo partly drawn) [Example 226, (2,2-Dimethyl-cyclopropyl)-[(R)-3-(6H-1,3,5,6-tetraaza-as-indacen-1-yl)-piperidin-1-yl]-methanone], the Ki came out at 16.2 nM at JAK1, 18.1 nM on JAK2, 78.5 nM at JAK3 and 82.1 nM on TYK2.
As to `CC1(C(=O)N2CCC[C@@H](n3cnc4cnc5[nH]ccc5c43)C2)CC1` [Example 227, (1-Methyl-cyclopropyl)-[(R)-3-(6H-1,3,5,6-tetraaza-as-indacen-1-yl)-piperidin-1-yl]-methanone], the Ki was 6.41 nM on JAK1, 3.16 nM on JAK2, 83 nM at JAK3 and 12.5 nM at TYK2.
The corresponding values for `O=C(N1CCC[C@@H](n2cnc3cnc4[nH]ccc4c32)C1)C1(C(F)(F)F)CC1` [Example 228, [(R)-3-(6H-1,3,5,6-tetraaza-as-indacen-1-yl)-piperidin-1-yl]-(1-trifluoromethyl-cyclopropyl)-methanone] are 15.8 nM, 5.99 nM, 118 nM and 43.4 nM.
Taken in the same sequence, the figures for `c1cc2c(ncc3nnn(C4CCNCC4)c32)[nH]1` [Example 231] were 86.6 nM, 395 nM, 1140 nM and 1030 nM.
On to `N#CCCN1CCC(n2nnc3cnc4[nH]ccc4c32)CC1` [Example 232, 3-[4-(6H-1,2,3,5,6-Pentaaza-as-indacen-1-yl)-piperidin-1-yl]-propionitrile], for which the inhibition constant (Ki) at JAK1 stood at 2.03 nM; on JAK2, 3.35 nM; on JAK3 it was 53.4 nM; at TYK2, 19.3 nM.
The corresponding values for `CS(=O)(=O)N1CCC(n2nnc3cnc4[nH]ccc4c32)CC1` [Example 233, 1-(1-Methanesulfonyl-piperidin-4-yl)-1,6-dihydro-1,2,3,5,6-pentaaza-as-indacene] are 4.96 nM, 7.84 nM, 250 nM and 77.1 nM.
Taken in the same sequence, the figures for `c1ccc(CCN2CCC[C@@H](n3cnc4cnc5[nH]ccc5c43)C2)cc1` [Example 234, 1-((R)-1-Phenthyl-piperidin-3-yl)-1,6-dihydro-1,3,5,6-tetraaza-as-indacene] were 63.3 nM, 179 nM, 132 nM and 1760 nM.
Taken in the same sequence, the figures for `OCc1nc2cnc3[nH]ccc3c2n1C1CCNCC1` [Example 236, (1-Piperidin-4-yl-1,6-dihydro-1,3,5,6-tetraaza-as-indacen-2-yl)-methanol] were 7.66 nM, 126 nM, 128 nM and 61.5 nM.
For the compound `Cc1nc2cnc3[nH]ccc3c2n1[C@@H]1CCCN(Cc2ccccc2)C1` [Example 238, (R)-1-(1-Benzyl-piperidin-3-yl)-2-methyl-1,6-dihydro-1,3,5,6-tetraaza-as-indacene], the inhibitory constant (Ki) was 29.3 nM on JAK1, 26 nM at JAK2, 85.2 nM on JAK3 and 171 nM at TYK2.
Taken in the same sequence, the figures for `N#CCCN1CCC(n2c(CO)nc3cnc4[nH]ccc4c32)CC1` [Example 239, 3-[4-(2-Hydroxymethyl-6H-1,3,5,6-tetraaza-as-indacen-1-yl)-piperidin-1-yl]-propionitrile] were 1.53 nM, 5.1 nM, 10.4 nM and 7.39 nM.
Taken in the same sequence, the figures for `N#CCCN1CCC(n2c(CC(=O)N3CCC(F)(F)CC3)nc3cnc4[nH]ccc4c32)CC1` [Example 240, 3-(4-{2-[2-(4,4-Difloro-piperidin-1-yl)-2-oxo-ethyl]-6H-1,3,5,6-tetraaza-as-indacen-1-yl)-piperidin-1-yl]-propionitrile] were 6.92 nM, 56 nM, 7.35 nM and 72.7 nM.
The corresponding values for `CC(C)(C)OC(=O)N1CCC[C@@H]1C(=O)N1CCC(n2cnc3cnc4[nH]ccc4c32)CC1` [Example 242, (R)-2-[4-(6H-1,3,5,6-Tetraaza-as-indacen-1-yl)-piperidine-1-carbonyl]-pyrrolidine-1-carboxylic acid tert-butyl ester] are 217 nM, 311 nM, 4060 nM and 2560 nM.
As for `NC(=O)Cc1nc2cnc3[nH]ccc3c2n1C1CCN(Cc2ccccc2)CC1` [Example 245, 2-[1-(1-Benzyl-piperidin-4-yl)-1,6-dihydro-1,3,5,6-tetraaza-as-indacen-2-yl]-acetamide], the inhibitory constant (Ki) on JAK1 was found to be 9.84 nM; on JAK2, 43.1 nM; on JAK3, 19.4 nM; at TYK2, 468 nM.
In the case of `O=C([C@H]1CC[C@H](n2nnc3cnc4[nH]ccc4c32)CC1)N1CCOCC1` [Example 246, Morpholin-4-yl-[4-(6H-1,2,3,5,6-pentaaza-as-indacen-1-yl)-cyclohexyl]-methanone], the inhibition constant (Ki) stood at 164 nM at JAK1, 183 nM at JAK2, 652 nM at JAK3 and 1620 nM at TYK2.
The corresponding values for `CC(C)NC(=O)[C@H]1CC[C@H](n2cnc3cnc4[nH]ccc4c32)CC1` [Example 247, 4-(6H-1,3,5,6-Tetraaza-as-indacen-1-yl)-cyclohexanecarboxylic acid isopropylamide] are 32.2 nM, 136 nM, 245 nM and 358 nM.
The corresponding values for `O=C([C@H]1CCCN1)N1CCC(n2cnc3cnc4[nH]ccc4c32)CC1` [Example 248, (R)-Pyrrolidin-2-yl-[4-(6H-1,3,5,6-tetraaza-as-indacen-1-yl)-piperidin-1-yl]-methanone] are 216 nM, 342 nM, 1160 nM and 3190 nM.
With `O=C([C@@H]1CCCN1)N1CCC(n2cnc3cnc4[nH]ccc4c32)CC1` [Example 249, (S)-Pyrrolidin-2-yl-[4-(6H-1,3,5,6-tetraaza-as-indacen-1-yl)-piperidin-1-yl]-methanone], the Ki at JAK1 was determined as 48.6 nM; on JAK2, 365 nM; at JAK3, 1180 nM; on TYK2, 1110 nM.
